The values that follow are results of earlier work, collected in PubChem BioAssay AID1259409 (Chemical Carcinogenesis Research Information System (CCRIS), 2018).

The data set relates to rodent chemically induced tumor inhibition, incidence and multiplicity. The experiment in a line: CCRIS tumor inhibitor studies. Particulars: 3817-11-6, Dose [Inhibitor]: 0, Promoter: NONE USED.

Several values for one entry are separate records, joined by “and”; a condition that tells them apart may be missing. Equal entries are not always repeated.

In the case of `CC[C@H](C)[C@@H](NC(=O)[C@@H](CCC(=O)O)NC(=O)[C@@H](CO)NC(=O)[C@@H](CO)NC(=O)[C@H](NC(=O)[C@@H](CC(=O)O)NC(=O)[C@H](NC(=O)[C@H](C)NC(=O)[C@H](C)NC(=O)[C@@H](CC(=O)O)NC(=O)[C@@H](CO)NC(=O)[C@H](N)CS)C(C)C)C(C)C)C(=O)N[C@@H](C(=O)N[C@@H](C(=O)N[C@H](CCCCN)C(=O)N[C@H](CC(=O)O)C(=O)N[C@H](CC(C)C)C(=O)N[C@H](CCCCN)C(=O)N[C@H](CCC(=O)O)C(=O)N[C@H](CCCCN)C(=O)N[C@H](CCCCN)C(=O)N[C@H](CCC(=O)O)C(=O)N[C@@H](C(=O)N[C@@H](C(=O)N[C@H](CCC(=O)O)C(=O)N[C@H](CCC(=O)O)C(=O)N[C@@H](C)C(=O)N[C@H](CCC(=O)O)C(=O)O)C(C)C)C(C)C)C(C)C)[C@H](C)O`, the “tumour outcome (control, treated, inhibition, significance)” value by setting is: (Carcinogen: N-BUTYL-N-(4-HYDROXYBUTYL)NITROSAMINE, 30 UG THYMOSIN FRACTION 5 IN 100 µL SALINE INJECTED INTO RIGHT THIGH 2/WK FOR 20 WK (STUDY DURATION: 20 WK), Route [Inhibitor]: INTRAMUSCULAR, Species: MOUSE, Strain/Sex: C3H/HEJ/FEMALE, Target Tissue: Type of Lesion: BLADDER: CARCINOMA, Dose [Carcinogen]: 0.05% (W/V) SOLUTION IN DRINKING WATER WITH 0.001% (W/V) TWEEN 80 FOR 20 WK) 6/11 (55%), 2/11 (18%), 67%, not significant; (Carcinogen: N-BUTYL-N-(4-HYDROXYBUTYL)NITROSAMINE, 30 UG THYMOSIN FRACTION 5 IN 100 µL SALINE INJECTED INTO RIGHT THIGH 2/WK FOR 25 WK (STUDY DURATION: 25 WK), Route [Inhibitor]: INTRAMUSCULAR, Species: MOUSE, Strain/Sex: C3H/HEJ/FEMALE, Target Tissue: Type of Lesion: BLADDER: CARCINOMA, Dose [Carcinogen]: 0.05% (W/V) SOLUTION IN DRINKING WATER WITH 0.001% (W/V) TWEEN 80 FOR 25 WK) 9/16 (56%), 8/13 (62%), -11%, not significant; (Carcinogen: N-BUTYL-N-(4-HYDROXYBUTYL)NITROSAMINE, 600 UG THYMOSIN FRACTION 5 2/WK FOR 12 WK BEGINNING POST CARCINOGEN TREATMENT (STUDY DURATION: 20 WK), Route [Inhibitor]: SUBCUTANEOUS, Species: MOUSE, Strain/Sex: NON/SHI/MALE, Target Tissue: Type of Lesion: RENAL PELVIS: CARCINOMA, Dose [Carcinogen]: 0.05% IN DRINKING WATER FOR 8 WK) 3/31 (10%), 5/32 (16%), -60%, not significant and 7/29 (24%), 7/29 (24%), 0%, not significant; (Carcinogen: N-BUTYL-N-(4-HYDROXYBUTYL)NITROSAMINE, 600 UG THYMOSIN FRACTION 5 2/WK FOR 12 WK BEGINNING POST CARCINOGEN TREATMENT (STUDY DURATION: 20 WK), Route [Inhibitor]: SUBCUTANEOUS, Species: MOUSE, Strain/Sex: NON/SHI/MALE, Target Tissue: Type of Lesion: URINARY BLADDER: CARCINOMA, Dose [Carcinogen]: 0.05% IN DRINKING WATER FOR 8 WK) 25/31 (81%), 15/32 (47%), 42%, p<0.01 and 19/29 (66%), 23/29 (79%), -20%, not significant; (Carcinogen: N-BUTYL-N-(4-HYDROXYBUTYL)NITROSAMINE, 600 UG THYMOSIN FRACTION 5 IN 100 µL SALINE INJECTED INTO RIGHT THIGH 2/WK FOR 30 WK (STUDY DURATION: 30 WK), Route [Inhibitor]: INTRAMUSCULAR, Species: RAT, Strain/Sex: WISTAR/FEMALE, Target Tissue: Type of Lesion: BLADDER: CARCINOMA, Dose [Carcinogen]: 0.025% (W/V) SOLUTION IN DRINKING WATER WITH 0.0005% (W/V) TWEEN 80 FOR 30 WK) 9/11 (82%), 2/11 (18%), 78%, p<0.05; (Carcinogen: PHENACETIN, 62-44-2, N-BUTYL-N-(4-HYDROXYBUTYL)NITROSAMINE, Carcinogen: PHENACETIN, 62-44-2, N-BUTYL-N-(4-HYDROXYBUTYL)NITROSAMINE, 60 UG IN 0.1 ML SALINE 2/WK FOR 6 WK CONCURRENTLY WITH BBN TREATMENT (STUDY DURATION: 30 WK), Route [Inhibitor]: SUBCUTANEOUS, Species: MOUSE, Strain/Sex: NON/SHI/MALE, Target Tissue: Type of Lesion: RENAL PELVIS: CARCINOMA, Dose [Carcinogen]: 2% PHENACETIN IN DIET FOR 8 WK FOLLOWED BY 0.05% BBN IN DRINKING WATER FOR 6 WK) 2/11 (18%), 5/11 (45%), -150%, not significant. In addition, the “tumour outcome (control, treated, inhibition, significance)” value (Carcinogen: PHENACETIN, 62-44-2, N-BUTYL-N-(4-HYDROXYBUTYL)NITROSAMINE, Carcinogen: PHENACETIN, 62-44-2, N-BUTYL-N-(4-HYDROXYBUTYL)NITROSAMINE, 60 UG IN 0.1 ML SALINE 2/WK FOR 6 WK CONCURRENTLY WITH BBN TREATMENT (STUDY DURATION: 30 WK), Route [Inhibitor]: SUBCUTANEOUS, Species: MOUSE, Strain/Sex: NON/SHI/MALE, Target Tissue: Type of Lesion: URINARY BLADDER: CARCINOMA, Dose [Carcinogen]: 2% PHENACETIN IN DIET FOR 8 WK FOLLOWED BY 0.05% BBN IN DRINKING WATER FOR 6 WK) is on record as 2/11 (18%), 2/11 (18%), 0%, not significant and the “tumour outcome (control, treated, inhibition, significance)” value (Carcinogen: PHENACETIN, 62-44-2, N-BUTYL-N-(4-HYDROXYBUTYL)NITROSAMINE, Carcinogen: PHENACETIN, 62-44-2, N-BUTYL-N-(4-HYDROXYBUTYL)NITROSAMINE, 60 UG IN 0.1 ML SALINE 2/WK FOR 6 WK CONCURRENTLY WITH BBN TREATMENT (STUDY DURATION: 34 WK), Route [Inhibitor]: SUBCUTANEOUS, Species: MOUSE, Strain/Sex: NON/SHI/MALE, Target Tissue: Type of Lesion: RENAL PELVIS: CARCINOMA, Dose [Carcinogen]: 2% PHENACETIN IN DIET FOR 12 WK FOLLOWED BY 0.05% BBN IN DRINKING WATER FOR 6 WK) is recorded as 9/20 (45%), 12/19 (63%), -40%, not significant.
